Data as given in EP0186977A2, “Renin-inhibitory dipeptides, their preparation and use” (SANKYO COMPANY LIMITED, priority 1984, dated 1986).

Biological target: T1, human renin (Homo sapiens, UniProt P00797)
T1 sequence (P00797 67-406): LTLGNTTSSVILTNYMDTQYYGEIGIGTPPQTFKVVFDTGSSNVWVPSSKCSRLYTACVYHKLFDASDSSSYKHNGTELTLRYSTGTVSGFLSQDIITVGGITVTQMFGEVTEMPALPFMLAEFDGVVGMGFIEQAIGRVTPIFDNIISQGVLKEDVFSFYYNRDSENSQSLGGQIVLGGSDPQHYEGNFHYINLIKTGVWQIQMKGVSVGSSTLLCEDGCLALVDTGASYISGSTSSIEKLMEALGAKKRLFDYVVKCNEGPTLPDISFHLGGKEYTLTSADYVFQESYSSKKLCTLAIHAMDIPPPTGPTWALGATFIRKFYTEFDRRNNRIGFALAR
Assay: Inhibition of renin activity (human renin with sheep angiotensinogen, assay of remaining angiotensin I)
Assay type: biochemical
Settings: 1 x 10 ^6M of the test compound, phosphate buffer pH 7.3, 10 minutes at 37°C, mean of 3 or 4 experiments
Protocol: The ability of various compounds of the invention to inhibit the activity of renin was determined according to the following method, which follows essentially the procedure of Kokubu et al. [Hypertension, 5, 191-197 (1983)].
Specifically, each test compound was dissolved in 60% v/v aqueous ethanol. Human renin activity in the presence and absence of each compound was measured using sheep angiotensinogen. The total volume of 1 ml of assay mixture contained 0.1 mole/litre phosphate buffer (pH 7.3), human renin (equivalent to 0.5 ng angiotensin I per ml per minute), sheep angiotensinogen (equivalent to 200 ng angiotensin 1), 1 x 10 ^6M of the test compound, 6% v/v ethanol and angiotensinase inhibitors (10 mmole/litre sodium ethylenediaminetetraacetate and 3.4 mmole/litre 8-hydroxyquinoline). The mixture was allowed to react for 10 minutes at 37°C, and then the reaction was stopped by placing the reaction tube in a boiling water bath for 5 minutes. The mixture was then centrifuged and the supernatant (0.05-0.1 ml) was used to assay remaining angiotensin I.
An identical experiment was carried out, as a control, except that the test compound was omitted. From the values obtained were calculated the % inhibition of renin activity achieved by each test compound. The results are shown in the following Table, in which the compounds of the invention are identified by the numbers assigned to them in the foregoing list. The values given are the mean of 3 or 4 experiments.
The isomers of these test compounds employed in these experiments are those isomers prepared as described in the subsequent Examples.

inhibition at 1 µM | SMILES
98.2% | CC[C@H](C)CNC(=O)C[C@H](O)[C@H](CC(C)C)NC(=O)[C@H](Cc1c[nH]cn1)NC(=O)C(Cc1cccc2ccccc12)Cc1cccc2ccccc12 [Compound No. 74, 4(S)-{N-[Bis(1-naphthylmethyl)acetyl]-L-histidyl-amino}-3(S)-hydroxy-6-methyl-N-[2(S)-(-)-methylbutyl]-heptanamide]
99% | CCCCCCCC(NC(=O)C(Cc1cccc2ccccc12)Cc1cccc2ccccc12)C(=O)N[C@@H](CC(C)C)[C@@H](O)CC(=O)N[C@H](CO)[C@@H](C)CC (stereo partly drawn) [Compound No. 286, N-[4(S)-{2(RS)-(Bis(1-naphthylmethyl)acetyl]amino-nonanovl}amino-3(S)-hydroxv-6-methylheptanoyl]-L-isoleucinol]
99% | CCCCCC(NC(=O)C(Cc1cccc2ccccc12)Cc1cccc2ccccc12)C(=O)N[C@@H](CC(C)C)[C@@H](O)CC(=O)NCC(C)CC (stereo partly drawn) [compound 274]
95% | CC[C@H](C)[C@@H](CO)NC(=O)C[C@H](O)[C@H](CC(C)C)NC(=O)C(Cc1cscn1)NC(=O)C(Cc1cccc2ccccc12)Cc1cccc2ccccc12 (mixture of isomers) [Compound No. 223, N-[4(S)-{N-[Bis(1-naphthylmethyl)acetyl]-3-(4-thiazolyl)-DL-alanylamino}-3(S)-hydroxy-6-methyl-heptanoyl]-L-isoleucinol]
92% | CC[C@H](C)[C@@H](CO)NC(=O)C[C@H](O)[C@H](CC(C)C)NC(=O)[C@H](CCC(=O)O)NC(=O)C(Cc1cccc2ccccc12)Cc1cccc2ccccc12 [compound 212]
99% | CCOCCNC(=O)C[C@H](O)[C@H](CC(C)C)NC(=O)[C@H](CC(C)C)NC(=O)C(Cc1cccc2ccccc12)Cc1cccc2ccccc12 [compound 45, 4(S)-{N-[Bis(1-naphthylmethyl)acetyl]-L-leucylamino}-3(S)-hydroxv-6-methvl-N-(2-ethoxyethvl)heptanamide]
93.5% | CC[C@H](C)[C@@H](CO)NC(=O)C[C@H](O)[C@H](CC(C)C)NC(=O)[C@H](CCSC)NC(=O)C(Cc1cccc2ccccc12)Cc1cccc2ccccc12 [Compound No. 196, N-[4(S)-{N-[Bis(1-naphthylmethyl)acetyl]-L-methionyl-amino}-3(S)-hydroxy-6-methylheptanoyl]-L-isoleucinol]
99% | CC[C@H](C)[C@@H](CO)NC(=O)C[C@H](O)[C@H](CC(C)C)NC(=O)[C@H](Cc1c[nH]cn1)NC(=O)C(Cc1cccc2ccccc12)Cc1cccc2ccccc12 [Compound No. 72, N-[4(S)-{N-[Bis(1-naphthylmethyl)acetyl]-L-histidylamino}-3(S)-hydroxy-6-methylheptanoyl]-L-isoleucinol]
93.5% | CC(C)C[C@H](NC(=O)C(CCCCc1ccccc1)Cc1cccc2ccccc12)C(=O)N[C@@H](CC(C)C)[C@@H](O)CC(=O)NCCN1CCOCC1 (stereo partly drawn) [compound 15]
93% | CC[C@H](C)[C@@H](CO)NC(=O)C[C@H](O)[C@H](CC(C)C)NC(=O)[C@H](CCC(N)=O)NC(=O)C(Cc1cccc2ccccc12)Cc1cccc2ccccc12 [compound 208, N-[4(S)-{N-[Bis(1-naphthylmethyl)acetyl]-L-glutaminylamino}-3(S)-hydroxy-6-methylheptanoyl]-L-isoleucinol]
99% | C=CCC(NC(=O)C(Cc1cccc2ccccc12)Cc1cccc2ccccc12)C(=O)N[C@@H](CC(C)C)[C@@H](O)CC(=O)N[C@H](CO)[C@@H](C)CC (mixture of isomers) [compound 291, N-[4(S)-{N-[Bis(1-naphthylmethyl)acetyl]-DL-allylglycylamino}-3(S)-hydroxy-6-methylheptanoyl]-L-isoleucinol]
99% | CCCC[C@H](NC(=O)C(Cc1cccc2ccccc12)Cc1cccc2ccccc12)C(=O)N[C@@H](CC(C)C)[C@@H](O)CC(=O)N[C@H](CO)[C@@H](C)CC [Compound No. 88, N-[4(S)-{N-[Bis(1-naphthylmethyl)acetyl]-L-norleucylamino}-3(S)-hydroxy-6-methylheptanoyl]-L-isoleucinol]
